From PubChem BioAssay (NCI)
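Each compound was tested at five concentrations against cells in 96-well plates for 48 hours. TGI denotes the concentration required for complete inhibition of growth.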

Key:
Assay in all cases: NCI tumour cell line growth inhibition, 48 h
RXF-631 renal = tested on: RXF-631 renal
DU-145 prostate = tested on: DU-145 prostate
HS 578T breast = tested on: HS 578T breast
MDA-MB-231 breast = tested on: MDA-MB-231 breast
MDA-MB-435 = tested on: MDA-MB-435
MDA-N = tested on: MDA-N
PC-3 prostate = tested on: PC-3 prostate
T-47D breast = tested on: T-47D breast
P388 leukemia = tested on: P388 leukemia
P388/ADR leukemia = tested on: P388/ADR leukemia
SN12K1 renal = tested on: SN12K1 renal

SMILES: CC(=O)c1cccc(NC(=O)C(=O)C(C(=O)c2ccccc2F)C2OC(=O)c3ccccc32)c1 (stereo unspecified)
- TGI (RXF-631 renal): > 100 µM

SMILES: CCOC(=O)C1=NN(c2ccccc2)C2=CC(C)=NN(C)C(=S)N21
- TGI (DU-145 prostate): > 100 µM
- TGI (HS 578T breast): > 100 µM
- TGI (MDA-MB-231 breast): > 100 µM
- TGI (MDA-MB-435): > 100 µM
- TGI (MDA-N): > 100 µM
- TGI (PC-3 prostate): > 100 µM
- TGI (T-47D breast): > 100 µM

SMILES: CC[C@](C)(O)C(=O)O[C@H]1C(=O)O[C@@H]2C[C@H]3C(C)=C[C@H](O)[C@@H](O)[C@]3(C)[C@H]3[C@@]4(O)OC[C@]32[C@@H]1[C@@H](C)[C@H]4O
- TGI (P388 leukemia): 128 µM
- TGI (P388/ADR leukemia): 325 µM
- TGI (SN12K1 renal): 32.1 µM
